# In the supplement of paper PMC3974653:
# Where a name gives a salt, the structure may show the parent alone.
# System: MTT (mouse pheochromocytoma)
# Assay: IC50 of cell viability (ATP content)
# Conditions: (24 or 48 h)
# Procedure, shortened: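 MTT mouse pheochromocytoma cells (5 µl of 200,000 cells/ml per well, white 1536-well plates, DMEM with 5% FBS and 1% horse serum) were cultured overnight at 37°C, 5% CO2. They then received 23 nl library compound in DMSO by pintool at 8 concentrations (final 0.5 nM to 46 µM) for 24 or 48 hrs. CellTiter-Glo ATP luminescence was read after 15 minutes. Signals were normalised to positive-control (100% inhibition) and DMSO (0%) wells, and IC50 came from a four-parameter logistic fit.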
row,Structure (SMILES),IC50 of cell viability [µM]
1,CO[C@@H]1[C@@H](OC2OC(C)C(OC3CC(C)(O)C(OC(=O)CC(C)C)C(C)O3)C(N(C)C)C2O)[C@@H](CC=O)C[C@@H](C)C(=O)C=CC2O[C@H]2C[C@@H](C)OC(=O)C[C@H]1OC(C)=O (some centres not stated) [CARBOMYCIN],> 46
2,[NH2][Pt]1([NH2])[O]C(=O)C2(CCC2)C(=O)[O]1 [CARBOPLATIN],> 46
3,OC(=O)C1=CC=C2[NH]C=C(CCCCN3CC\C(=C/C3)C4=CC=CC=C4)C2=C1 [CARMOXIROLUM],> 46
4,COC(=O)CCC[N+](C)(C)C [CARPRONIUM CHLORIDE],> 46
5,CCN(CC)C(=O)Nc1ccc(OC[C@H](O)CNC(C)(C)C)c(C(C)=O)c1 [CELIPROLOL HYDROCHLORIDE],> 46
6,OCC1O[C@H](O[C@H]2C(O)C(O)C(O)O[C@@H]2CO)C(O)C(O)C1O (some centres not stated) [CELLOBIOSE (D[+])],> 46
7,CCOC(=O)OCC/C(SC(=O)OCC)=C(\C)N(C=O)Cc1cnc(C)nc1N [CETOTIAMINE HYDROCHLORIDE],> 46
8,CCCCCCCCCCCCCCCCO [CETYL ALCOHOL],> 46
9,OC(O)C(Cl)(Cl)Cl [CHLORAL HYDRATE],> 46
10,OC[C@@H](O)[C@H]1O[C@@H]2OC(C(Cl)(Cl)Cl)O[C@H]2[C@H]1O (some centres not stated) [CHLORALOSUM],> 46
11,OCC(O)[C@H]1O[C@@H]2O[C@H](C(Cl)(Cl)Cl)O[C@@H]2[C@H]1O (some centres not stated) [CHLORALOSUM],> 46
12,O=C(O)CCCc1ccc(N(CCCl)CCCl)cc1 [CHLORAMBUCIL],> 46
13,CNC1=C[N+]([O-])=C(c2ccccc2)c2cc(Cl)ccc2N1 [CHLORDIAZEPOXIDE],> 46
14,C[N+](C)(C)CC[N+]1(C)Cc2c(Cl)c(Cl)c(Cl)c(Cl)c2C1 [CHLORISONDAMINE],> 46
15,Cc1ncsc1CCCl [CHLORMETHIAZOLE],> 46
16,CN1C(=O)CC[S+](=O)([O-])C1c1ccc(Cl)cc1 (configuration not stated) [CHLORMEZANONE],> 46
17,Cc1ccc(Cl)c(O)c1 [CHLORO-M-CRESOL],> 46
18,CC(C)(O)C(Cl)(Cl)Cl [CHLOROBUTANOL],> 46
19,CC[NH+](CC)CCOC(=O)c1ccc(N)cc1Cl [CHLOROPROCAINE HYDROCHLORIDE],> 46
20,Cc1cc(O)c(C(C)C)cc1Cl [CHLOROTHYMOL],> 46
21,C=C1CC[C@H](O)C/C1=C/C=C1\CCC[C@]2(C)[C@@H]([C@H](C)CCCC(C)C)CC[C@@H]12 [CHOLECALCIFEROL],> 46
22,CC(C)CCC[C@@H](C)[C@H]1CC[C@H]2[C@@H]3CC=C4C[C@@H](O)CC[C@]4(C)[C@H]3CC[C@]12C [CHOLESTEROL],> 46
23,COC(C(=O)C(O)C(C)O)C1Cc2cc3cc(OC4CC(OC5CC(O)C(OC)C(C)O5)C(OC(C)=O)C(C)O4)c(C)c(O)c3c(O)c2C(=O)C1OC1CC(OC2CC(OC3CC(C)(O)C(OC(C)=O)C(C)O3)C(O)C(C)O2)C(O)C(C)O1 (configuration not stated) [CHROMOMYCIN A3],> 46

# Second part, the compound after the results:
row,IC50 of cell viability [µM],Structure (SMILES)
1,> 46,CCC(=O)c1ccc2c(c1)N(CCCN1CCN(CCO)CC1)c1ccccc1S2 [CARPHENAZINE MALEATE]
2,> 46,CC(C(=O)O)c1ccc2c(c1)[nH]c1ccc(Cl)cc12 (configuration not stated) [CARPROFEN]
3,> 46,NC(=O)OC[C@@H]1[C@H](NC(=O)/C(=N/OCC(=O)[O-])c2csc(N)n2)C(=O)N1S(=O)(=O)[O-] [CARUMONAM SODIUM]
4,> 46,COc1ccccc1OCCNCC(O)COc1cccc2[nH]c3ccccc3c12.O=C(O)C(O)C(O)C(=O)O (configuration not stated) [CARVEDILOL TARTRATE]
5,> 46,N[S+](=O)([O-])c1ccc(C(=O)O)cc1 [CARZENIDUM]
6,> 46,N[C@@H](C(=O)N[C@H]1[C@H]2SC\C(=C(/N2C1=O)C(O)=O)CSC3=C[NH]N=N3)C4=CC=C(O)C=C4 [CEFATRIZINE]
7,> 46,C=CC1=C(C(=O)O)N2C(=O)C(NC(=O)/C(=N\O)c3csc(N)n3)C2SC1 (configuration not stated) [CEFDINIR]
8,> 46,CO/N=C(\C(=O)NC1C(=O)N2C(C(=O)OCOC(=O)C(C)(C)C)=C(/C=C\c3scnc3C)CSC12)c1csc(N)n1 (configuration not stated) [CEFDITORIN PIVOXIL]
9,> 46,CO/N=C(\C(=O)N[C@@H]1C(=O)N2C(C(=O)OCOC(=O)C(C)(C)C)=C(C)CS[C@H]12)c1csc(N)n1 [CEFETAMET PIVOXIL HCl]
10,> 46,CO/N=C(/C(=O)N[C@@H]1C(=O)N2C(C(=O)O)=C(CSc3nnnn3C)CS[C@H]12)c1csc(N)n1 [CEFMENOXIME HYDROCHLORIDE]
11,> 46,CO[C@@]1(NC(=O)CSC[C@@H](N)C(=O)O)C(=O)N2C(C(=O)O)=C(CSc3nnnn3C)CS[C@@H]21 [CEFMINOX SODIUM]
12,> 46,O=C([O-])C1=C(CSc2nnnn2CS(=O)(=O)[O-])CS[C@@H]2[C@H](NC(=O)[C@H](O)c3ccccc3)C(=O)N12 [CEFONICID SODIUM]
13,> 46,[Na+].CCN1CCN(C(=O)NC(C(=O)NC2C3SC\C(=C(/N3C2=O)C([O-])=O)CSC4=NN=N[N]4C)C5=CC=C(O)C=C5)C(=O)C1=O (configuration not stated) [CEFOPERAZONE SODIUM]
14,> 46,CO/N=C(/C(=O)N[C@@H]1C(=O)N2C(C(=O)O)=C(C[n+]3ccc(N)n3CCO)CS[C@H]12)c1csc(N)n1 [CEFOSELIS SULFATE]
15,> 46,CO/N=C(/C(=O)N[C@@H]1C(=O)N2C(C(=O)[O-])=C(C[n+]3ccn4ncccc43)CS[C@H]12)c1nsc(N)n1 [CEFOZOPRAN HYDROCHLORIDE]
16,> 46,Cc1cc(O)c(C(=O)N[C@@H](C(=O)N[C@@H]2C(=O)N3C(C(=O)O)=C(CSc4nnnn4C)CS[C@H]23)c2ccc(O)cc2)cn1 [CEFPIRAMIDE SODIUM]
17,> 46,CO/N=C(\C(=O)N[C@@H]1C(=O)N2C(C(=O)[O-])=C(C[n+]3cccc4c3CCC4)CS[C@H]12)c1csc(N)n1 [CEFPIROME SULPHATE]

row,IC50 of cell viability [µM],Structure (SMILES)
1,> 46,COCC1=C(C(=O)OC(C)OC(=O)OC(C)C)N2C(=O)[C@@H](NC(=O)/C(=N/OC)c3csc(N)n3)[C@H]2SC1 (some centres not stated) [CEFPODOXIME PROXETIL]
2,> 46,CO/N=C(\C(=O)N[C@@H]1C(=O)N2C(C(=O)[O-])=C(C[n+]3cccc4c3CCCC4)CS[C@H]12)c1csc(N)n1 [CEFQUINOME sulfate]
3,> 46,CO/N=C(\C(=O)N[C@@H]1C(=O)N2C(C(=O)O)=C(Cn3nnc(C)n3)CS[C@H]12)c1csc(N)n1 [CEFTERAM]
4,> 46,[O-]C(=O)C/1=C(/CS[C@@H]2[C@H](NC(=O)C[N]3C=NN=N3)C(=O)N12)CSC4=NN=CS4 [CEFTEZOLE SODIUM]
5,> 46,Nc1nc(/C(=C/CC(=O)O)C(=O)NC2C(=O)N3C(C(=O)O)=CCSC23)cs1 (configuration not stated) [CEFTIBUTEN]
6,> 46,CO/N=C(/C(=O)N[C@@H]1C(=O)N2C(C(=O)O)=C(CSC(=O)c3ccco3)CSC12)c1csc(N)n1 (some centres not stated) [CEFTIOFUR CRYSTALLINE FREE ACID]
7,> 46,CO/N=C(/C(=O)N[C@@H]1C(=O)N2C(C(=O)[O-])=CCS[C@H]12)c1csc(N)n1 [CEFTIZOXIME SODIUM]
8,> 46,CO/N=C(/C(=O)NC1C(=O)N2C(C(=O)[O-])=C(CSc3nc(=O)c([O-])nn3C)CSC12)c1csc(N)n1.O.O.O.[Na+].[Na+] (configuration not stated) [CEFTRIAXONE SODIUM TRIHYDRATE]
9,> 46,CO/N=C(/C(=O)N[C@@H]1C(=O)N2C(C(=O)OC(C)OC(C)=O)=C(COC(N)=O)CS[C@H]12)c1ccco1 (some centres not stated) [CEFUROXIME AXETIL]
10,> 46,[O-]C(=O)C/1=C(CSC2C(NC(=O)CC3=CC=CS3)C(=O)N12)\C[N+]4=CC=CC=C4 (configuration not stated) [CEPHALORIDINE]
11,> 46,COc1ccc2cc1Oc1ccc(cc1)CC1c3c(cc4c(c3Oc3cc5c(cc3OC)CCN(C)C5C2)OCO4)CCN1C (configuration not stated) [CEPHARANTHINE]
12,> 46,COCc1c(C(C)C)nc(C(C)C)c(/C=C/[C@@H](O)C[C@@H](O)CC(=O)[O-])c1-c1ccc(F)cc1 [CERIVASTATIN SODIUM]
13,> 46,O=[S+]([O-])(O)c1cc(I)c(O)c2ncccc12 [CHINIOFONUM]
14,> 46,CN(C)CC[C@@](O)(c1ccccc1)c1ccccc1Cl [CHLOPHEDIANOL HYDROCHLORIDE]
15,> 46,O=C(NC(CO)C(O)c1ccc([N+](=O)[O-])cc1)C(Cl)Cl (configuration not stated) [CHLORAMPHENICOL]
16,> 46,O=C(O)c1ccccn1 [CHROMIUM PICOLINATE]
17,> 46,OC(=O)C/1=C/C(=O)C2=C(O1)C=CC=C2 [CHROMOCARB]
